Results as given in patent US10653717B2, “Antibiotic compositions” (priority 2016, dated 2020).
Read-outs that look alike come from different tables or passages of the source.

Columns and labels:
[1] = system: KP-2: K. pneumonia subsp. pneumonia 0322#; experiment: MIC of silver with antibiotics on clinical isolated MDR Gram-negative bacteria; type: cell-based, Klebsiella pneumonia; details: antibiotic 4 μM
Method: (§1) There are five clinically most difficult-to-treat MDR Gram-negative pathogen species: Klebsiella pneumonia, Acinetobacter baumannii, Pseudomonas aeruginosa, Enterobacter cloacae and Escherichia coli. One strain from each species was isolated, and overnight cultures were diluted 1:1000 times in LB medium, and treated with serial concentrations of Ag^+ and antibiotics in combinations for 24 h (Table 10).
(§2) Five clinical isolated MDR Gram-negative strains were grown until an OD600 nm of 0.4, and were diluted 1:1,000 into 100 μl LB medium in 96 micro-well plates. […] The cultures treated with the same serial dilutions of 100 μl ebselen and silver nitrate were used as the positive control.

ECL-2: E. cloacae 2301# [2] = experiment: as above; type: cell-based, Enterobacter cloacae; details: antibiotic 4 μM
Method: as §1, §2

[3] = system: AB-1: Acinetobacter baumannii H#
Method: (§3) There are five most difficult-to-treat MDR Gram-negative pathogen species in the clinic, which are also typical GSH-positive bacteria: Klebsiella pneumonia, Acinetobacter baumannii, Pseudomonas aeruginosa, Enterobacter cloacae and Escherichia coli. Two strains of each species were isolated, overnight cultures were diluted 1:1000 times in LB medium, and treated with Ag^+ with a serial concentration of ebselen in combination for 16 h. […] Among these five species, A. baumannii and E. cloacae are very readily formed drug-resistant strains, which are needed to be treated by or the fourth-generation cephalosporin in the clinic, including imipenem, cefepime, and cefotaxime, etc.
(§4) Ten clinical isolated MDR Gram-negative (GSH-positive) strains were grown until an OD600 nm of 0.4 and were diluted 1:100 into 100 μl of LB medium in 96 micro-well plates. Serial dilutions of 100 μl ebselen and AgNO3 were added to the individual wells. […] The culture treated with 0.8% (v/v) DMSO was used as a control.

AB-2: A. baumannii 0361# = system: AB-2: A. baumannii 0361#
Method: as §3, §4

[4] = system: ECL-1: Enterobacter cloacae 0431#
Method: as §3, §4

ECL-2: E. cloacae 2301# [5] = system: ECL-2: E. cloacae 2301#
Method: as §3, §4

[6] = system: ECO-1: Escherichia coli 1139#
Method: as §3, §4

ECO-2: E. coli 2219# = system: ECO-2: E. coli 2219#
Method: as §3, §4

ECO-3: E. coli ZY-1 = system: ECO-3: E. coli ZY-1
Method: as §3, §4

[7] = system: ECO-4: MG1655 (ATCC 700926)
Method: as §3, §4

[8] = system: KP-1: Klebsiella pneumoniae subsp. pneumoniae 13#
Method: as §3, §4

[9] = system: KP-2: K. pneumoniae subsp. pneumoniae 0322#
Method: as §3, §4

[10] = system: PA-1: Pseudomonas aeruginosa 1298#
Method: as §3, §4

[11] = system: PA-2: P. aeruginosa 0009#
Method: as §3, §4

reduced E. coli Trx1 = reduced E. coli Trx1 (Escherichia coli, UniProt P0AA25); details: excitation 280 nm
Sequence of reduced E. coli Trx1 (P0AA25 whole entry): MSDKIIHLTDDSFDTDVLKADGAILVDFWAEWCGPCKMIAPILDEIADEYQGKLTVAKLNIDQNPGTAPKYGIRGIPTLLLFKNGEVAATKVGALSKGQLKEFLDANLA
Method: Pure recombinant 100 nM TrxR, and 5 μM Trx mixture were incubated with AgNO3 solution in the presence of 200 μM NADPH, and then their activities were detected by DTNB reduction assay. FIG. 4B is a fluorescent spectra of a complex between reduced E. coli 10 μM Trx1 with AgNO3. Reduced 10 μM E. coli Trx1 protein was incubated with a serial concentration of AgNO3 solution and the fluorescent spectra was detected with an excitation wavelength at 280 nm. Oxidized Trx1 (Trx-S2) was used as a control. […] After the treatment described in (B), Trx activity was assayed by a DTNB method in the presence of E. coli Trx1. […] Silver-inhibited E. coli Trx1 was passed through a desalting column to remove small molecules and then Trx activity was measured. E. coli Trx1 without the inhibition was used as a control.
Fluorescent Spectra of reduced E. coli Trx with Silver were recorded at 10 μM in a PerkinElmer Enspire multilabel recorder using an excitation at 280 nm.

## O=c1c2ccccc2[se]n1-c1ccccc1 [ebselen, 2-phenyl-1,2-benzisoselenazol-3(2H)-one]
[1]
  MIC of silver in the presence of different antibiotics: 40 µM
ECL-2: E. cloacae 2301# [2]
  MIC of silver in the presence of different antibiotics: 10 µM

## O=[N+]([O-])[O-].[Ag+] [silver, silver nitrate]
[3]; Ebselen 0 μM
  MIC of silver in the presence of ebselen: 80 µM
[3]; Ebselen 1 μM
  MIC of silver in the presence of ebselen: 80 µM
[3]; Ebselen 2 μM
  MIC of silver in the presence of ebselen: 40 µM
[3]; Ebselen 4 μM
  MIC of silver in the presence of ebselen: 10 µM
AB-2: A. baumannii 0361#; Ebselen 0 μM
  MIC of silver in the presence of ebselen: 80 µM
AB-2: A. baumannii 0361#; Ebselen 1 μM
  MIC of silver in the presence of ebselen: 80 µM
AB-2: A. baumannii 0361#; Ebselen 2 μM
  MIC of silver in the presence of ebselen: 40 µM
AB-2: A. baumannii 0361#; Ebselen 4 μM
  MIC of silver in the presence of ebselen: 20 µM
[4]; Ebselen 0 μM
  MIC of silver in the presence of ebselen: 80 µM
[4]; Ebselen 1 μM
  MIC of silver in the presence of ebselen: 40 µM
[4]; Ebselen 2 μM
  MIC of silver in the presence of ebselen: 20 µM
[4]; Ebselen 4 μM
  MIC of silver in the presence of ebselen: 20 µM
ECL-2: E. cloacae 2301# [5]; Ebselen 0 μM
  MIC of silver in the presence of ebselen: 80 µM
ECL-2: E. cloacae 2301# [5]; Ebselen 1 μM
  MIC of silver in the presence of ebselen: 40 µM
ECL-2: E. cloacae 2301# [5]; Ebselen 2 μM
  MIC of silver in the presence of ebselen: 40 µM
ECL-2: E. cloacae 2301# [5]; Ebselen 4 μM
  MIC of silver in the presence of ebselen: 10 µM
[6]; Ebselen 0 μM
  MIC of silver in the presence of ebselen: 40 µM
[6]; Ebselen 1 μM
  MIC of silver in the presence of ebselen: 20 µM
[6]; Ebselen 2 μM
  MIC of silver in the presence of ebselen: 10 µM
[6]; Ebselen 4 μM
  MIC of silver in the presence of ebselen: 5 µM
ECO-2: E. coli 2219#; Ebselen 0 μM
  MIC of silver in the presence of ebselen: 80 µM
ECO-2: E. coli 2219#; Ebselen 1 μM
  MIC of silver in the presence of ebselen: 80 µM
ECO-2: E. coli 2219#; Ebselen 2 μM
  MIC of silver in the presence of ebselen: 40 µM
ECO-2: E. coli 2219#; Ebselen 4 μM
  MIC of silver in the presence of ebselen: 10 µM
ECO-3: E. coli ZY-1; Ebselen 0 μM
  MIC of silver in the presence of ebselen: 40 µM
ECO-3: E. coli ZY-1; Ebselen 1 μM
  MIC of silver in the presence of ebselen: 40 µM
ECO-3: E. coli ZY-1; Ebselen 2 μM
  MIC of silver in the presence of ebselen: 20 µM
ECO-3: E. coli ZY-1; Ebselen 4 μM
  MIC of silver in the presence of ebselen: 10 µM
[7]; Ebselen 0 μM
  MIC of silver in the presence of ebselen: 40 µM
[7]; Ebselen 1 μM
  MIC of silver in the presence of ebselen: 20 µM
[7]; Ebselen 2 μM
  MIC of silver in the presence of ebselen: 10 µM
[7]; Ebselen 4 μM
  MIC of silver in the presence of ebselen: 5 µM
[8]; Ebselen 0 μM
  MIC of silver in the presence of ebselen: 80 µM
[8]; Ebselen 1 μM
  MIC of silver in the presence of ebselen: 80 µM
[8]; Ebselen 2 μM
  MIC of silver in the presence of ebselen: 40 µM
[8]; Ebselen 4 μM
  MIC of silver in the presence of ebselen: 10 µM
[9]; Ebselen 0 μM
  MIC of silver in the presence of ebselen: 80 µM
[9]; Ebselen 1 μM
  MIC of silver in the presence of ebselen: 40 µM
[9]; Ebselen 2 μM
  MIC of silver in the presence of ebselen: 20 µM
[9]; Ebselen 4 μM
  MIC of silver in the presence of ebselen: 20 µM
[10]; Ebselen 0 μM
  MIC of silver in the presence of ebselen: 80 µM
[10]; Ebselen 1 μM
  MIC of silver in the presence of ebselen: 80 µM
[10]; Ebselen 2 μM
  MIC of silver in the presence of ebselen: 20 µM
[10]; Ebselen 4 μM
  MIC of silver in the presence of ebselen: 20 µM
[11]; Ebselen 0 μM
  MIC of silver in the presence of ebselen: 80 µM
[11]; Ebselen 1 μM
  MIC of silver in the presence of ebselen: 80 µM
[11]; Ebselen 2 μM
  MIC of silver in the presence of ebselen: 40 µM
[11]; Ebselen 4 μM
  MIC of silver in the presence of ebselen: 20 µM
Reduced E. coli Trx1; 1-10 μM Ag^+
  tryptophan fluorescence intensity of 10 μM Trx1: increased the tryptophan fluorescence intensity
Reduced E. coli Trx1; 20-100 μM Ag^+
  fluorescent intensity of 10 μM Trx1: decreased
